Patent US11976334B2, “Inhibitor of ATR kinase for use in a method of treating a hyper-proliferative disease” (Bayer Aktiengesellschaft, priority 2017, dated 2024)

Assays:
[1] = test system: LNCaP human prostate cancer cells; assay: Proliferation of LNCaP cells (CellTiter-Glow); format: cell-based; conditions: 144 h, R1881 1 nM, day 6, read-out: in vitro (IC50, nM), inhibition of tumor cell proliferation
Procedure: They were plated in RPMI1640 medium without phenol red+10% charcoal-stripped FCS at 600 cells/well in a 384-well white plate. […] Cell number was determined by CellTiter-Glow (Promega) at day 0 and day 6. Luminescence was determined in Victor X3. The inhibition of cell growth was calculated by normalization with respect to the fluorescence reading (cell number) measured at the end of the experiment for cells treated with R1881 alone compared to the fluorescence reading (cell number) measured at the start of the experiment for DMSO-treated cells.

[2] = test system: 22RV1 human prostate cancer cells; assay: Proliferation of 22Rv1 cells (crystal violet); format: cell-based; conditions: 96 h, 22Rv1, Prostate, 4 days, read-out: in vitro (IC50, nM), inhibition of tumor cell proliferation
Procedure: (§1) 22RV1 human prostate cancer cells were obtained from the American Type Culture Collection (ATCC CRL-2505). They were plated in RPMI1640 medium supplemented with 10% FCS at 5000 cells/well in a 96-well microtiter plate. After 24 h, the cells from one microtiter plate were stained with crystal violet (==>0 plate), whereas the cells in the test plates were exposed continuously for 4 days to test substances. Cell proliferation was determined by staining with crystal violet. The absorbance was determined photometrically at 595 nm using a Tecan Sunrise instrument.

[3] = test system: VCaP human prostate cancer cells; assay: Proliferation of VCaP cells (Alamar Blue); format: cell-based; conditions: 168 h, day 7, read-out: in vitro (IC50, nM), inhibition of tumor cell proliferation
Procedure: VCaP human prostate cancer cells were obtained from the VTT Technical Research Center (Finland). They were plated in DMEM medium (DMEM=Dulbecco's Modified Eagle Medium) with stable glutamine+10% FCS at 16000 cells/well in a 96-well microtiter plate. […] Cell number was determined by Alamar Blue staining (2 h) at day 0 and day 7. Fluorescence was determined in a Victor X3 device (excitation 530 nm; emission 590 nm). The inhibition of cell growth was calculated by normalization with respect to the fluorescence reading (cell number) measured at the end of the experiment for cells treated with R1881 alone compared to the fluorescence reading (cell number) measured at the start of the experiment for DMSO-treated cells.

[4] = test system: LAPC-4 human prostate cancer cells; assay: Proliferation of LAPC-4 cells (Alamar Blue); format: cell-based; conditions: 168 h, LapC4, Prostate, R1881 1 nM, day 7, read-out: in vitro (IC50, nM), inhibition of tumor cell proliferation
Procedure: LAPC-4 human prostate cancer cells were obtained from the VTT Technical Resarch Center (Finland). They were plated in RPMI 1640 (RPMI=Roswell Park Memorial Institute) medium without phenol red+10% charcoal-stripped FCS (FCS=Fetal Calf Serum)+2 mM L-Glutamine at 4000 cells/well in a 96-well microtiter plate. […] Cell number was determined by Alamar Blue staining (2 h) at day 7. Fluorescence was determined in a Victor X3 device (excitation 530 nm; emission 590 nm). The inhibition of cell growth was calculated by normalization with respect to the fluorescence reading (cell number) measured at the end of the experiment for cells treated with R1881 alone compared to the fluorescence reading (cell number) measured at the end of the experiment for DMSO-treated cells.

[5] = test system: PC-3 human prostate cancer cells; assay: Proliferation of PC-3 cells (crystal violet); format: cell-based; conditions: PC-3, 96 h, PC3, Prostate, 4 days, read-out: in vitro (IC50, nM), inhibition of tumor cell proliferation
Procedure: as §1, with “PC-3” for “22RV1”, “DSMZ-German” for “American Type Culture”, “of Microorganisms and Cell Cultures (Germany) (DSMZ ACC-465).” for “(ATCC CRL-2505).”, “DMEM/Ham's F12” for “RPMI1640”, “medium” for “medium supplemented”, “stable Glutamine+10%” for “10%”

C4-2B = assay: Tumor cell proliferation, C4-2B (crystal violet); format: cell-based; conditions: Homo sapiens, 96 h, Prostate, 4 days, read-out: in vitro (IC50, nM), inhibition of tumor cell proliferation
Excerpt: (§2) All measurements were done in quadruplicates.

HCC70 = assay: Tumor cell proliferation, HCC70 (crystal violet); format: cell-based; conditions: Homo sapiens, 96 h; HCC70, Breast; 4 days; read-out: in vitro (IC50, nM), inhibition of tumor cell proliferation
Excerpt: as §2

HT29 = assay: Tumor cell proliferation, HT29 (crystal violet); format: cell-based; conditions: Homo sapiens, HT-29, 96 h; HT29, Colorectal; 4 days; read-out: in vitro (IC50, nM), inhibition of tumor cell proliferation
Excerpt: as §2

U-87MG = assay: Tumor cell proliferation, U-87MG (crystal violet); format: cell-based; conditions: Homo sapiens, 96 h, Glioblastoma, 4 days, read-out: in vitro (IC50, nM), inhibition of tumor cell proliferation
Excerpt: as §2

M059J = assay: Tumor cell proliferation, M059J (crystal violet); format: cell-based; conditions: Homo sapiens, 96 h, Glioblastoma, 4 days, read-out: in vitro (IC50, nM), inhibition of tumor cell proliferation
Excerpt: as §2

NCI-H2030 = assay: Tumor cell proliferation, NCI-H2030 (crystal violet); format: cell-based; conditions: Homo sapiens, 96 h; NCI-H2030, Lung; 4 days; read-out: in vitro (IC50, nM), inhibition of tumor cell proliferation
Excerpt: as §2

NCI-H23 = assay: Tumor cell proliferation, NCI-H23 (crystal violet); format: cell-based; conditions: Homo sapiens, 96 h; NCI-H23, Lung; 4 days; read-out: in vitro (IC50, nM), inhibition of tumor cell proliferation
Excerpt: as §2

A549 = assay: Tumor cell proliferation, A549 (crystal violet); format: cell-based; conditions: Homo sapiens, 96 h; A549, Lung; 4 days; read-out: in vitro (IC50, nM), inhibition of tumor cell proliferation
Excerpt: as §2

SU-DHL-8 = assay: Tumor cell proliferation, SU-DHL-8 (Cell Titer Glo); format: cell-based; conditions: Homo sapiens, 96 h; SU-DHL-8, Lymphoma, B cell; 4 days; read-out: in vitro (IC50, nM), inhibition of tumor cell proliferation
Procedure: (§3) Non-adherent growing GRANTA-519, Jeko-1, JVM-2, NCI-H929, Rec-1 and SU-DHL-8 cells were seeded in 150 μl of growth medium at 4000 cells/well (NCI-H929, 5000 cells/well) in 96-well microtiter plates and incubated for 24 h at 37° C. […] All measurements were done in quadruplicates.

TMD-8 = assay: Tumor cell proliferation, TMD-8; format: cell-based; conditions: Homo sapiens, TMD8, 96 h; TMD-8, Lymphoma, B cell; 4 days; read-out: in vitro (IC50, nM), inhibition of tumor cell proliferation
Excerpt: as §2

REC-1 = assay: Tumor cell proliferation, REC-1 (Cell Titer Glo); format: cell-based; conditions: Homo sapiens, Rec1, 96 h; REC-1, Lymphoma, mantle cell; 4 days; read-out: in vitro (IC50, nM), inhibition of tumor cell proliferation
Procedure: as §3

Jeko-1 = assay: Tumor cell proliferation, Jeko-1 (Cell Titer Glo); format: cell-based; conditions: Homo sapiens, 96 h; Jeko-1, Lymphoma, mantle cell; 4 days; read-out: in vitro (IC50, nM), inhibition of tumor cell proliferation
Procedure: as §3

GRANTA-519 = assay: Tumor cell proliferation, GRANTA-519 (Cell Titer Glo); format: cell-based; conditions: Homo sapiens, 96 h; GRANTA-519, Lymphoma, mantle cell; 4 days; read-out: in vitro (IC50, nM), inhibition of tumor cell proliferation
Procedure: as §3

JVM-2 = assay: Tumor cell proliferation, JVM-2 (Cell Titer Glo); format: cell-based; conditions: Homo sapiens, 96 h; JVM-2, Lymphoma, mantle cell; 4 days; read-out: in vitro (IC50, nM), inhibition of tumor cell proliferation
Procedure: as §3

HT-144 = assay: Tumor cell proliferation, HT-144 (crystal violet); format: cell-based; conditions: Homo sapiens, 96 h; HT-144, Melanoma; 4 days; read-out: in vitro (IC50, nM), inhibition of tumor cell proliferation
Excerpt: as §2

SK-OV-3 = assay: Tumor cell proliferation, SK-OV-3 (crystal violet); format: cell-based; conditions: Homo sapiens, 96 h; SK-OV-3, Ovarian; 4 days; read-out: in vitro (IC50, nM), inhibition of tumor cell proliferation
Excerpt: as §2

BxPC3 = assay: Tumor cell proliferation, BxPC3 (crystal violet); format: cell-based; conditions: Homo sapiens, BXPC-3, 96 h; BxPC3, Pancreas; 4 days; read-out: in vitro (IC50, nM), inhibition of tumor cell proliferation
Excerpt: as §2

AsPc-1 = assay: Tumor cell proliferation, AsPc-1 (crystal violet); format: cell-based; conditions: Homo sapiens, ASPC1, 96 h; AsPc-1, Pancreas; 4 days; read-out: in vitro (IC50, nM), inhibition of tumor cell proliferation
Excerpt: as §2

MIAPaCa2 = assay: Tumor cell proliferation, MIAPaCa2 (crystal violet); format: cell-based; conditions: Homo sapiens, MIA PaCa-2, 96 h; MIAPaCa2, Pancreas; 4 days; read-out: in vitro (IC50, nM), inhibition of tumor cell proliferation
Excerpt: as §2

DLD-1 parental = assay: Isogenic tumor cell line proliferation, DLD-1 parental; format: cell-based; conditions: Homo sapiens, 168 h, Colorectal, 7 days, CTG, read-out: in vitro (IC50, nM), inhibition of isogenic tumor cell line proliferation
Procedure: (§4) The isogenic DLD-1 cell lines DLD-1 parental, DLD-1 BRCA2 (−/−) and DLD-1 ATM (−/−) (see Table 3: Test systems) were seeded in RPMI 1640 (RPMI=Roswell Park Memorial Institute) medium without phenol red+10% charcoal-stripped FCS (FCS=Fetal Calf Serum)+2 mM L-Glutamine+25 mM Sodium Bicarbonate at 2,500 cells/well in a 96-well microtiter plate. […] All measurements were done in quadruplicates.

DLD-1 BRCA2 (−/−) = assay: Isogenic tumor cell line proliferation, DLD-1 BRCA2 (−/−); format: cell-based; conditions: Homo sapiens, 168 h, BRCA2 deficiency, 7 days, CTG, read-out: in vitro (IC50, nM), inhibition of isogenic tumor cell line proliferation
Procedure: as §4

[6] = test system: A2780 xenograft (ovarian); conditions: mouse, in vivo, po, 50 mg/kg
Procedure: (§5) For this purpose, mice were implanted subcutaneously with tumor cells. […] The oral application volume was 10 ml/kg. The time interval between two applications per day was 6-7 h. […] The tumor size and the body weight were determined three times weekly. Changes in the body weight were a measure of treatment-related toxicity (>10%=critical, stop of treatment until recovery, >20%=toxic, termination). The tumor area was detected by means of an electronic caliper gauge [length (mm)×width (mm)]. In vivo anti-tumor efficacy is presented as T/C ratio (Treatment/Control) calculated with tumor areas at study end by the formula [(tumor area of treatment group at day x)−(tumor area of treatment group at day before first treatment)]/[(tumor area of control group at day x)−(tumor area of control group at day before first treatment)]. […] Statistical analysis was assessed using SigmaStat software. A one-way analysis of variance was performed and differences to the control were compared by a pair-wise comparison procedure (Dunn's method).

[7] = test system: LOVO xenograft (colorectal cancer); conditions: mouse, in vivo, po, 50 mg/kg
Procedure: as §5

PC3 xenograft (prostate) = conditions: mouse, in vivo, po, 50 mg/kg
Procedure: as §5

[8] = test system: REC-1 xenograft (mantle cell lymphoma); conditions: mouse, in vivo, po, 50 mg/kg
Procedure: as §5

Work on `C[C@@H]1COCCN1c1cc(-c2ccnn2C)c2ccnc(-c3ccn[nH]3)c2n1` [Compound A, 2-[(3R)-3-methylmorpholin-4-yl]-4-(1-methyl-1H-pyrazol-5-yl)-8-(1H-pyrazol-5-yl)-1,7-naphthyridine] yielded an IC50 [1] of 18 nM, an IC50 [2] of 36 nM and an IC50 [3] of 51 nM. The IC50 [4] was 55 nM, the IC50 [5] was 490 nM and the IC50 (C4-2B) was 50 nM. For the same compound, the IC50 (HCC70) was 27 nM, the IC50 (HT29) was 160 nM and the IC50 (U-87MG) was 64 nM. For the same compound, the IC50 (M059J) was 80 nM, the IC50 (NCI-H2030) was 160 nM and the IC50 (NCI-H23) was 18 nM. It also gave an IC50 (A549) of 29 nM, an IC50 (SU-DHL-8) of 9 nM and an IC50 (TMD-8) of 179 nM. For the same compound, the IC50 (REC-1) was 10 nM, the IC50 (Jeko-1) was 18 nM and the IC50 (GRANTA-519) was 30 nM. The IC50 (JVM-2) was 32 nM, the IC50 (HT-144) was 40 nM and the IC50 (SK-OV-3) was 33 nM. For the same compound, the IC50 (BxPC3) was 44 nM, the IC50 (AsPc-1) was 49 nM and the IC50 (MIAPaCa2) was 380 nM. For the same compound, the IC50 (DLD-1 parental) was 50 nM, the IC50 (DLD-1 BRCA2 (−/−)) was 27 nM and the “Max. weight loss (%)” value [6] was −6%. For the same compound, the “Max. weight loss (%)” value [7] was −8%, the “Max. weight loss (%)” value (PC3 xenograft (prostate)) was −7% and the “Max. weight loss (%)” value [8] was −10%.
